In US10670605B2, “Cysteine reactive probes and uses thereof” (The Scripps Research Institute, priority 2015, dated 2020):

Tests used:
Test in all cases: Competitive isoTOP-ABPP in situ (fragment-treated cells)
Type in all cases: cell-based
[1] = molecular target: T1, cysteines in MDA-MB-231 and Ramos cells (Homo sapiens, UniProt P50570); settings: 200 μM, insitu
T1 sequence (P50570 1-870): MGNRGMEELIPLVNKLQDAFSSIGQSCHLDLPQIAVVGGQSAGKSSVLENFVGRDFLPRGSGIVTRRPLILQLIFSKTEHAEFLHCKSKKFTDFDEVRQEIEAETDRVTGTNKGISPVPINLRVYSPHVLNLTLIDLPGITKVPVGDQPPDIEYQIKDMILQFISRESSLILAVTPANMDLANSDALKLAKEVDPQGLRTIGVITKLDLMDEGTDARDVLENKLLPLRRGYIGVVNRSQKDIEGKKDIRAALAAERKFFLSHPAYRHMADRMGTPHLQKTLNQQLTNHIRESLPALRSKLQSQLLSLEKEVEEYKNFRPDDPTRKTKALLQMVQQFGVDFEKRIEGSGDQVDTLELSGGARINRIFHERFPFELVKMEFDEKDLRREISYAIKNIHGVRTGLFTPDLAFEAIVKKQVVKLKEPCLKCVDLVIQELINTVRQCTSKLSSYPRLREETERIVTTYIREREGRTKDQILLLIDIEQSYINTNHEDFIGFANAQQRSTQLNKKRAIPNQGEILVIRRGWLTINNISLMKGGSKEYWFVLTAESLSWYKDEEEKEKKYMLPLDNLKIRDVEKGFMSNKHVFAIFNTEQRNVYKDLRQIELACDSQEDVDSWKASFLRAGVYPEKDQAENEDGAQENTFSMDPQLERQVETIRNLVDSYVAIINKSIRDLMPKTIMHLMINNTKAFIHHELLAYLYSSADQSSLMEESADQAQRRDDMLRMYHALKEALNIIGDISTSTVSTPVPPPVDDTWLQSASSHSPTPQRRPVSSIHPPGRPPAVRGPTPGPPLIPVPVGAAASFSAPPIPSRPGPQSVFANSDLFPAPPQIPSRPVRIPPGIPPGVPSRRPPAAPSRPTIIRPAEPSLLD

[2] = molecular target: T2, cysteines in MDA-MB-231 and Ramos cells (Homo sapiens, UniProt P30101); settings: 200 μM, insitu
T2 sequence (P30101 25-505): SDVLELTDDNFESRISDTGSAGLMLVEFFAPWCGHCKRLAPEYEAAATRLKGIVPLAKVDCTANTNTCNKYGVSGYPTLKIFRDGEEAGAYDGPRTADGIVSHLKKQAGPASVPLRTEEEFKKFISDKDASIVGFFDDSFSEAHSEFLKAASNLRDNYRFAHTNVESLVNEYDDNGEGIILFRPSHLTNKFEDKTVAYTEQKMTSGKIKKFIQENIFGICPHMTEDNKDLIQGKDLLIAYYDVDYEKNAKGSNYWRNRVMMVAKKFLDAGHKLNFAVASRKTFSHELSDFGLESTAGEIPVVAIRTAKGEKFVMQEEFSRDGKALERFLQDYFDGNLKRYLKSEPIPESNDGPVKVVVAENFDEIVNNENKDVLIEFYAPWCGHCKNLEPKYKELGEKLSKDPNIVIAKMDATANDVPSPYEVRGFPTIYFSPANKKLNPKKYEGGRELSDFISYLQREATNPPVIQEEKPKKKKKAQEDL

[3] = molecular target: T3, cysteines in MDA-MB-231 and Ramos cells (Homo sapiens, UniProt Q9HCC0); settings: 200 μM, insitu, 231
T3 sequence (Q9HCC0 23-563): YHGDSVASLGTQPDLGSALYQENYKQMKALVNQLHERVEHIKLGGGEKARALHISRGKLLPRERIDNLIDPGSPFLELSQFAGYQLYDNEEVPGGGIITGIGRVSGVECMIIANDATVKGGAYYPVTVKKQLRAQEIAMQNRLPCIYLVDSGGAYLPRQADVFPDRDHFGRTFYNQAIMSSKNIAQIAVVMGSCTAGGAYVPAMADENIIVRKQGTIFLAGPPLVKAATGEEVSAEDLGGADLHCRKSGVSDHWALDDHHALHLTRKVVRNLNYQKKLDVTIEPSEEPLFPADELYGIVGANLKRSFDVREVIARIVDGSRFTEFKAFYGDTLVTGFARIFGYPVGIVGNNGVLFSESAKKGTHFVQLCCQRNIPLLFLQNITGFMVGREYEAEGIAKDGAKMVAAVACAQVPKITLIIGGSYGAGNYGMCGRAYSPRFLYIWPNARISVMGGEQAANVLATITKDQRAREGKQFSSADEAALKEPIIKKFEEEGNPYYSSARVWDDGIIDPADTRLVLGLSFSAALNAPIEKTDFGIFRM

[4] = molecular target: T4, cysteines in MDA-MB-231 and Ramos cells (Homo sapiens, UniProt Q96AB3); settings: 200 μM, insitu
T4 sequence (Q96AB3 1-205): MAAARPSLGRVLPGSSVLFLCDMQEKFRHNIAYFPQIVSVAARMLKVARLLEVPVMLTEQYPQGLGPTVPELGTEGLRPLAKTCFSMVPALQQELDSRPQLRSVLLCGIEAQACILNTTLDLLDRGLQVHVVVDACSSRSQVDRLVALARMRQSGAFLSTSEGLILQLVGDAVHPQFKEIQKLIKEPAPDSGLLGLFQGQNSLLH

[5] = molecular target: T5, cysteines in MDA-MB-231 and Ramos cells (Homo sapiens, UniProt Q99497); settings: 200 μM, insitu
T5 sequence (Q99497 1-189): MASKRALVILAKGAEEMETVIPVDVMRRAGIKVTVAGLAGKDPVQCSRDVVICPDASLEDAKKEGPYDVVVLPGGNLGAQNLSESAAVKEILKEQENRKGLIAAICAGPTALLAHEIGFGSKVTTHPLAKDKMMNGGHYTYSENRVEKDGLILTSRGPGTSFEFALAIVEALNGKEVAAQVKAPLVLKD

## O=C(CCl)NC12CC3CC(CC(C3)C1)C2 [compound 21]
[1]; 231
  isoTOP-ABPP ratio P50570_C27: 0.8
[2]; 231
  isoTOP-ABPP ratio P30101_C57: 1.0
[3]
  isoTOP-ABPP ratio Q9HCC0_C216: 2.2
[4]; 231
  isoTOP-ABPP ratio Q96AB3_C114: 4.9

## CC(C)CCOCCNC(=O)CCl [compound 27]
[1]; 231
  isoTOP-ABPP ratio P50570_C27: 0.5
[5]; 231
  isoTOP-ABPP ratio Q99497_C106: 0.9
[2]; 231
  isoTOP-ABPP ratio P30101_C57: 1.1
  isoTOP-ABPP ratio P30101_C406: 1.2
[3]
  isoTOP-ABPP ratio Q9HCC0_C216: 1.0
[4]; 231
  isoTOP-ABPP ratio Q96AB3_C114: 1.0

## COc1ccccc1OCCNC(=O)CCl [compound 28]
[5]; 231
  isoTOP-ABPP ratio Q99497_C106: 1.0
[2]; 231
  isoTOP-ABPP ratio P30101_C57: 1.6
[4]; 231
  isoTOP-ABPP ratio Q96AB3_C114: 0.8

## O=C(CCl)N1CCN(CC(=O)N2CCOCC2)CC1 [compound 29]
[1]; ramos
  isoTOP-ABPP ratio P50570_C27: 1.0
[2]; ramos
  isoTOP-ABPP ratio P30101_C57: 1.2
  isoTOP-ABPP ratio P30101_C406: 1.5
[4]; ramos
  isoTOP-ABPP ratio Q96AB3_C114: 1.1

## C=CC(=O)N(Cc1cccnc1)c1cc(C(F)(F)F)cc(C(F)(F)F)c1 [compound 31]
[5]; 231
  isoTOP-ABPP ratio Q99497_C106: 0.8
[5]; ramos
  isoTOP-ABPP ratio Q99497_C106: 1.0
[2]; 231
  isoTOP-ABPP ratio P30101_C57: 0.9
  isoTOP-ABPP ratio P30101_C406: 0.8
[2]; ramos
  isoTOP-ABPP ratio P30101_C406: 1.1
[4]; 231
  isoTOP-ABPP ratio Q96AB3_C114: 0.7

## C=CC(=O)Nc1cc(F)c(N2CCN(C(=O)OC(C)(C)C)CC2)c(F)c1 [compound 38]
[1]; 231
  isoTOP-ABPP ratio P50570_C27: 0.9
[5]; 231
  isoTOP-ABPP ratio Q99497_C106: 1.1
[2]; 231
  isoTOP-ABPP ratio P30101_C57: 0.9
  isoTOP-ABPP ratio P30101_C406: 0.8
[4]; 231
  isoTOP-ABPP ratio Q96AB3_C114: 1.2

## Cc1ccc(C=C(C#N)C(=O)NCCN2CCOCC2)cc1 [compound 41]
[1]; 231
  isoTOP-ABPP ratio P50570_C27: 0.5
[5]; 231
  isoTOP-ABPP ratio Q99497_C106: 0.6
[2]; 231
  isoTOP-ABPP ratio P30101_C57: 1.3
  isoTOP-ABPP ratio P30101_C406: 1.0
[3]
  isoTOP-ABPP ratio Q9HCC0_C216: 1.0
[4]; 231
  isoTOP-ABPP ratio Q96AB3_C114: 0.7

## CC1CCc2ccccc2N1C(=O)CCl (stereo not drawn) [compound 45]
[1]; 231
  isoTOP-ABPP ratio P50570_C27: 15.4
[5]; 231
  isoTOP-ABPP ratio Q99497_C106: 20.0
[2]; 231
  isoTOP-ABPP ratio P30101_C57: 2.6
  isoTOP-ABPP ratio P30101_C406: 2.6
[3]
  isoTOP-ABPP ratio Q9HCC0_C216: 7.0
[4]; 231
  isoTOP-ABPP ratio Q96AB3_C114: 3.1

## O=C(CCl)Nc1cccc2ncccc12 [compound 51]
[1]; 231
  isoTOP-ABPP ratio P50570_C27: 1.1
[5]; 231
  isoTOP-ABPP ratio Q99497_C106: 1.4
[2]; 231
  isoTOP-ABPP ratio P30101_C406: 6.0
[3]
  isoTOP-ABPP ratio Q9HCC0_C216: 0.9
[4]; 231
  isoTOP-ABPP ratio Q96AB3_C114: 0.8
